Patent US7241791B2, “Substituted 4-(indazol-3-yl)phenols” (Wyeth, priority 2002, dated 2007)
Where two headings read alike, the source gives them in different places.

Experiments:
[1] = molecular target: T1, human ERα (Homo sapiens, UniProt P03372); experiment: Creatine kinase expression (ER/CK) in Ad5-wt-hERα infected HAECT-1 cells; details: for ER/CK % E2: efficacy relative to the maximal stimulation observed with E2
T1 sequence (P03372 1-595): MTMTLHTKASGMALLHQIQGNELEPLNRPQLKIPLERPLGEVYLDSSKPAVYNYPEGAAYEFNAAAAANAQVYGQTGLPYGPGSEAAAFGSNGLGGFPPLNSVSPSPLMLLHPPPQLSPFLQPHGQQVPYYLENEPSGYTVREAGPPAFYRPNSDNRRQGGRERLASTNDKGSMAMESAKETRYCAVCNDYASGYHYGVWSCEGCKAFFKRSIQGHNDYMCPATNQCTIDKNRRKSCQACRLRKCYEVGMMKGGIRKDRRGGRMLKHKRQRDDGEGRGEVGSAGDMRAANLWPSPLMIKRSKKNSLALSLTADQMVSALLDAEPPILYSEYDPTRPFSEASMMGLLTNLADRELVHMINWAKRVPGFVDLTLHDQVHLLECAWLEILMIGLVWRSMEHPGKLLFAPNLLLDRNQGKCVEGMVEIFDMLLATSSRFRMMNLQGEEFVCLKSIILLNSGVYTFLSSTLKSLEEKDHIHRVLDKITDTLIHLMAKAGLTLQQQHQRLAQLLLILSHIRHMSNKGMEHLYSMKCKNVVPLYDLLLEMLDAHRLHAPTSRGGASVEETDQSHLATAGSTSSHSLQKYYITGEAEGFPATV

[2] = molecular target: T1, human ERα; experiment: NF-κB luciferase reporter (ER/NF-KB-luc) in Ad5-wt-hERα infected HAECT-1 cells; details: for IC50: ER/NF-KB-luc IC50, Ad5-wt-ER infected HAECT-1 cells, IL-1β
[3] = HAECT1, read-out: ER/NF-KB-luc % E2, efficacy relative to the maximal inhibition observed with E2

Molecule | EC50 [1] | ER/CK % E2 [1] | IC50 [2] | Emax [2, 3] | EC50 ([1]; read-out: ER/CK EC50, Ad5-wt-ER infected HAECT-1 cells) | Emax ([2]; HAECT1, read-out: ER/NF-KB-luc % E2)
CC(C)(C)OC(=O)N[C@@H](CCC(=O)Oc1ccc(-c2nn(C3CCCC3)c3c(F)cccc23)cc1)C(=O)OC(C)(C)C [Example 117, 1-tert-butyl 5-[4-(1-cyclopentyl-7-fluoro-1H-indazol-3-yl)phenyl] N-(tert-butoxycarbonyl)-L-glutamate] | 169 nM | 22 % E2 | 150 nM | 52% |  | 
Cc1cc(O)ccc1-c1nn(C(C)C)c2c(F)cccc12 [Example 91, 4-(7-fluoro-1-isopropyl-1H-indazole-3-yl)-3-methylphenol] | 787 nM | 24 % E2 | 80 nM | 82% |  | 
Cc1cccc2c(-c3ccc(O)cc3)n[nH]c12 [Example 34, 4-(7-methyl-1H-indazol-3-yl) phenol] | 137 nM | 87 % E2 | 66 nM | 115% |  | 
CCCn1nc2c(-c3ccccc3)cccc2c1-c1ccc(O)cc1 [Example 110, 4-(7-phenyl-2-propyl-2H-indazol-3-yl)phenol] | 12 nM | 82 % E2 | 2 nM | 89% |  | 
CCCCCn1nc(-c2ccc(O)cc2)c2cccc(C(F)(F)F)c21 [Example 47, 4-[1-pentyl-7-(trifluoromethyl)-1H-indazol-3-yl]phenol] | 13 nM | 26 % E2 | 97 nM | 94% |  | 
CC(C)n1nc2c(F)cccc2c1-c1ccc(O)cc1 [Example 56, 4-(7-fluoro-2-isopropyl-2H-indazol-3-yl)phenol] | 477 nM | 47 % E2 | 14 nM | 96% |  | 
CC(C)n1nc2c(Cl)cccc2c1-c1ccc(O)cc1 [Example 46, 4-(7-chloro-2-isopropyl-2H-indazol-3-yl)phenol] |  | 67 % E2 |  | 102% |  | 
Cn1nc(-c2ccc(O)cc2)c2cc(F)ccc21 [Example 168, 4-(5-fluoro-1-methyl-1H-indazol-3-yl)phenol] | 1370 nM | 86 % E2 | 347 nM | 95% |  | 
CC(C)n1nc(-c2ccc(O)cc2)c2cccc(-c3ccco3)c21 [Example 267, 4-[7-(2-furyl)-1-isopropyl-1H-indazol-3-yl]phenol] | 250 nM | 35 % E2 | 53 nM | 64% |  | 
4-[1-isopropyl-7-(2-methylphenyl)-1H-indazol-3-yl]-3-methyl-phenol [Example 256] |  |  |  |  | 292 nM | 
Oc1ccc(-c2nn(-c3cccc(Cl)c3)c3cc(O)ccc23)c(O)c1 [Example 6, 4-[1-(3-chlorophenyl)-6-hydroxy-1H-indazol-3-yl]benzene-1,3-diol] |  |  |  | 85% |  | 
Oc1ccc(-c2nn(C3CCC3)c3c(C(F)(F)F)cccc23)c(O)c1 [Example 70, 4-[1-cyclobutyl-7-(trifluoromethyl)-1H-indazol-3-yl]benzene-1,3-diol] |  |  | 14 nM | 76% |  | 
CCCn1nc(-c2ccc(O)cc2)c2cccc(-c3ccc(F)cc3)c21 [Example 104, 4-[7-(4-Fluorophenyl)-1-propyl-1H-indazole-3-yl]phenol] |  |  | 250 nM | 81% |  | 
Cc1cc(O)ccc1-c1nn(C2CCCC2)c2c(-c3ccc(-c4ccccc4)cc3)cccc12 [Example 261, 4-[7-(1,1′-biphenyl-4-yl)-1-cyclopentyl-1H-indazol-3-yl]-3-methyl-phenol] |  |  | 98 nM | 42% |  | 
CCCCC/C=C/c1cccc2c(-c3ccc(O)cc3C)nn(C3CCCC3)c12 [Example 258, 4-{1-cyclopentyl-7-[(E)-hept-1-enyl]-1H-indazol-3-yl}-3-methyl-phenol] |  |  | 644 nM | 77% |  | 
OCCn1nc(-c2ccc(O)cc2)c2cccc(C(F)(F)F)c21 [Example 162, 4-[1-(2-hydroxyethyl)-7-(trifluoromethyl)-1H-indazol-3-yl]phenol] |  |  |  | 84% |  | 
CCCn1nc(-c2ccc(O)cc2)c2cccc(C)c21 [Example 37, 4-(7-methyl-1-propyl-1H-indazol-3-yl)phenol] |  |  |  |  |  | 95%
Cc1cc(O)ccc1-c1nn(C(C)C)c2c(-c3ccc(O)c(O)c3)cccc12 [Example 250, 4-[3-(4-hydroxy-2-methylphenyl)-1-isopropyl-1H-indazol-7-yl]-benzene-1,2-diol] |  |  |  | 80% |  | 
CC(=O)Oc1ccc(-c2nn(C3CCCC3)c3c(F)cccc23)cc1 [Example 114, 4-(1-cyclopentyl-7-fluoro-1H-indazol-3-yl)phenyl acetate] |  |  | 268 nM | 67% |  | 

Molecule | EC50 [1] | ER/CK % E2 [1] | IC50 [2] | Emax [2, 3] | EC50 ([1]; read-out: ER/CK EC50, Ad5-wt-ER infected HAECT-1 cells) | Emax ([2]; HAECT1, read-out: ER/NF-KB-luc % E2)
C=CCn1nc(-c2ccc(O)cc2C)c2cccc(Cl)c21 [Example 82, 4-(1-allyl-7-chloro-1H-indazol-3-yl)-3-methylphenol] |  |  | 191 nM | 68% |  | 
CC(C)Cn1nc(-c2ccc(O)cc2O)c2cccc(F)c21 [Example 94, 4-(7-fluoro-1-isobutyl-1H-indazole-3-yl)benzene-1,3-diol] |  |  | 332 nM | 86% |  | 
Cc1cc(O)ccc1-c1nn(C(C)C)c2c(-c3ccccc3Cl)cccc12 [Example 253, 4-[7-(2-chlorophenyl)-1-isopropyl-1H-indazol-3-yl]-3-methyl-phenol] |  |  | 21 nM | 62% |  | 
Cc1cc(O)ccc1-c1nn(C(C)C)c2c(C(F)(F)F)cccc12 [Example 83, 4-[1-isopropyl-7-(trifluoromethyl)-1H-indazole-3-yl]-3-methylphenol] |  |  |  | 82% |  | 
CC(C)Cn1nc(-c2ccc(O)cc2O)c2cccc(C(F)(F)F)c21 [Example 68, 4-[1-isobutyl-7-(trifluoromethyl)-1H-indazol-3-yl]benzene-1,3-diol] |  |  | 56 nM | 74% |  | 
CCCn1nc(-c2ccc(O)cc2)c2cccc(N3CCOCC3)c21 [Example 105, 4-(7-Morpholin-4-yl-1-propyl-1H-indazole-3-yl)phenol] |  |  | 918 nM | 66% |  | 
Cc1cc(O)ccc1-c1nn(C2CCCC2)c2c(-c3ccccc3Cl)cccc12 [Example 262, 4-[7-(2-chlorophenyl)-1-cyclopentyl-1H-indazol-3-yl]-3-methyl-phenol] |  |  | 8 nM | 75% |  | 
Cc1cc(O)ccc1-c1nn(C(C)C)c2c(-c3ccco3)cccc12 [Example 254, 4-[7-(2-furyl)-1-isopropyl-1H-indazol-3-yl]-3-methylphenol] |  |  | 27 nM | 56% |  | 
CS(=O)(=O)c1ccc(-n2nc(-c3ccc(O)cc3O)c3ccc(O)cc32)cc1 [Example 28, 4-{6-hydroxy-1-[4-(methylsulfonyl)phenyl]-1H-indazol-3-yl}benzene-1,3-diol] |  |  | 551 nM | 86% |  | 
CCCCn1nc(-c2ccc(O)cc2)c2cccc(C(F)(F)F)c21 [Example 219, 4-[1-butyl-7-(trifluoromethyl)-1H-indazol-3-yl]phenol] |  |  | 369 nM | 104% |  | 
CC(C)n1nc(-c2ccc(O)cc2)c2cccc(-c3ccc(CO)cc3)c21 [Example 230, 4-{7-[4-(hydroxymethyl)phenyl]-1-isopropyl-1H-indazol-3-yl}-phenol] |  |  | 367 nM | 82% |  | 
CCCn1nc(-c2ccc(O)cc2C)c2cccc(F)c21 [Example 93, 4-(7-fluoro-1-propyl-1H-indazole-3-yl)-3-methylphenol] |  |  | 128 nM | 60% |  | 
CCCn1nc(-c2ccc(OC(=O)CC(C)(C)C)cc2)c2cccc(Cl)c21 [Example 122, 4-(7-chloro-1-propyl-1H-indazol-3-yl)phenyl 3,3-dimethylbutanoate] |  |  | 350 nM | 78% |  | 
Oc1ccc(-c2nn(-c3ccccc3F)c3cc(O)ccc23)c(O)c1 [Example 22, 4-[1-(2-fluorophenyl)-6-hydroxy-1H-indazol-3-yl]benzene-1,3-diol] |  |  | 50 nM | 73% |  | 
Cc1cc(O)ccc1-c1nn(C(C)C)c2c(-c3ccccc3C)cccc12 [Example 255, 4-[1-isopropyl-7-(2-methylphenyl)-1H-indazol-3-yl]-3-methyl-phenol] |  |  | 4 nM | 89% |  | 
Oc1ccc(-c2nn(-c3cccc(C(F)(F)F)c3)c3cc(O)ccc23)c(O)c1 [Example 26, 4-{6-hydroxy-1-[3-(trifluoromethyl)phenyl]-1H-indazol-3-yl}benzene-1,3-diol] |  |  | 356 nM | 101% |  | 
CCCCC/C=C/c1cccc2c(-c3ccc(O)cc3C)nn(C(C)C)c12 [Example 248, 4-{7-[(E)-hept-1-enyl]-1-isopropyl-1H-indazol-3-yl}-3-methyl-phenol] |  |  | 481 nM | 73% |  | 
Cc1cc(O)ccc1-c1nn(C(C)C)c2c(-c3ccc(CO)cc3)cccc12 [Example 249, 4-{7-[14-(hydroxymethyl)phenyl]-1-isopropyl-1H-indazol-3-yl}-3-methylphenol] |  |  | 59 nM | 59% |  | 
